Among the data in the supplement of paper PMC10307832 are relative viability values, retold here.

Experiment in all cases: relative viability (nuclei count vs DMSO), 5 days (fraction); higher = more cells survive
Compound in the assay “Metformin + Bortezomib”: CN(C)C(=N)NC(=N)N [Metformin] + CC(C)C[C@H](NC(=O)[C@H](Cc1ccccc1)NC(=O)c1cnccn1)B(O)O [Bortezomib] (partner 0.002 µM)
The procedure, abridged: (§1)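 For relative viability, nuclei counts in treated wells were divided by those in vehicle wells. Lung cancer cell lines had been pin-tool dosed in 1536-well plates the day after seeding and cultured for 5 days, then fixed and stained in one step (final 0.05% Triton X-100, 1% formaldehyde, 1 ug/ml Hoechst) and imaged at 4×. Doses were one drug alone or a fixed anchor-drug dose plus five library-drug doses (not always all listed) in √10 steps, and values are duplicate-plate medians.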

Compound in the assay “Apatinib + Phenformin”: N#CC1(c2ccc(NC(=O)c3cccnc3NCc3ccncc3)cc2)CCCC1 [Apatinib] + N=C(N)NC(=N)NCCc1ccccc1 [Phenformin] (partner 250 µM)
In outline:
as §1

Compound in the assay “Metformin + Navitoclax”: CN(C)C(=N)NC(=N)N [Metformin] + CC1(C)CCC(c2ccc(Cl)cc2)=C(CN2CCN(c3ccc(C(=O)NS(=O)(=O)c4ccc(N[C@H](CCN5CCOCC5)CSc5ccccc5)c(S(=O)(=O)C(F)(F)F)c4)cc3)CC2)C1 [Navitoclax] (partner 0.5 µM)
In outline: as §1

Compound in the assay “Metformin + Pemetrexed”: CN(C)C(=N)NC(=N)N [Metformin] + Nc1nc2[nH]cc(CCc3ccc(C(=O)N[C@@H](CCC(=O)O)C(=O)O)cc3)c2c(=O)[nH]1 [Pemetrexed] (partner 0.2 µM)
The procedure, abridged: as §1

For NCI-H1355, the relative viability in the assay with Metformin + Bortezomib (first compound 10 µM) worked out at 1.1; in the assay with Metformin + Bortezomib (first compound 31.62 µM), 1.18; in the assay with Metformin + Bortezomib (first compound 100 µM), 1.14; with Metformin + Bortezomib (first compound 316.23 µM), 1.17; in the assay with Metformin + Bortezomib (first compound 1000 µM), 1.24; in the assay with Apatinib + Phenformin (first compound 0.08 µM), 0.438. Further, the relative viability worked out at 0.443 with Apatinib + Phenformin (first compound 0.253 µM); 0.447 with Apatinib + Phenformin (first compound 0.8 µM); 0.406 in the assay with Apatinib + Phenformin (first compound 2.53 µM); 0.385 in the assay with Apatinib + Phenformin (first compound 8 µM); 0.936 in the assay with Metformin + Navitoclax (first compound 10 µM); 1.02 with Metformin + Navitoclax (first compound 31.62 µM). Also, the relative viability was 0.955 in the assay with Metformin + Navitoclax (first compound 100 µM); 0.719 with Metformin + Navitoclax (first compound 316.23 µM); 0.903 with Metformin + Navitoclax (first compound 1000 µM); 0.942 with Metformin + Pemetrexed (first compound 10 µM); 1.02 with Metformin + Pemetrexed (first compound 31.62 µM); 1.02 with Metformin + Pemetrexed (first compound 100 µM). Further, the relative viability is 1 with Metformin + Pemetrexed (first compound 316.23 µM) and 0.94 in the assay with Metformin + Pemetrexed (first compound 1000 µM).

NCI-H1975: the relative viability stood at 0.335 in the assay with Metformin + Bortezomib (first compound 10 µM); 0.333 with Metformin + Bortezomib (first compound 31.62 µM); 0.411 in the assay with Metformin + Bortezomib (first compound 100 µM); 0.375 with Metformin + Bortezomib (first compound 316.23 µM); 0.433 with Metformin + Bortezomib (first compound 1000 µM); 0.425 with Apatinib + Phenformin (first compound 0.08 µM). Also, the relative viability with Apatinib + Phenformin (first compound 0.253 µM) was 0.387; with Apatinib + Phenformin (first compound 0.8 µM) it was 0.382; with Apatinib + Phenformin (first compound 2.53 µM) it was 0.389; with Apatinib + Phenformin (first compound 8 µM) it was 0.433; with Metformin + Navitoclax (first compound 10 µM), 1.23; with Metformin + Navitoclax (first compound 31.62 µM), 1.32. Also, the relative viability amounted to 1.28 in the assay with Metformin + Navitoclax (first compound 100 µM); 1 in the assay with Metformin + Navitoclax (first compound 316.23 µM); 1.23 with Metformin + Navitoclax (first compound 1000 µM); 0.277 with Metformin + Pemetrexed (first compound 10 µM); 0.296 in the assay with Metformin + Pemetrexed (first compound 31.62 µM); 0.317 in the assay with Metformin + Pemetrexed (first compound 100 µM). The relative viability with Metformin + Pemetrexed (first compound 316.23 µM) was 0.269; in the assay with Metformin + Pemetrexed (first compound 1000 µM), 0.289.

With HCC-44, the relative viability was found to be 0.861 with Metformin + Bortezomib (first compound 10 µM); 0.858 with Metformin + Bortezomib (first compound 31.62 µM); 0.88 with Metformin + Bortezomib (first compound 100 µM); 0.88 in the assay with Metformin + Bortezomib (first compound 316.23 µM); 0.856 with Metformin + Bortezomib (first compound 1000 µM); 0.153 with Apatinib + Phenformin (first compound 0.08 µM). The relative viability with Apatinib + Phenformin (first compound 0.253 µM) is 0.17; in the assay with Apatinib + Phenformin (first compound 0.8 µM) it was 0.309; with Apatinib + Phenformin (first compound 2.53 µM), 0.22; with Apatinib + Phenformin (first compound 8 µM), 0.203; with Metformin + Navitoclax (first compound 10 µM) it was 0.99; with Metformin + Navitoclax (first compound 31.62 µM), 1.08. Further, the relative viability with Metformin + Navitoclax (first compound 100 µM) is 0.957; in the assay with Metformin + Navitoclax (first compound 316.23 µM), 0.888; with Metformin + Navitoclax (first compound 1000 µM), 1.06; in the assay with Metformin + Pemetrexed (first compound 31.62 µM), 0.593; with Metformin + Pemetrexed (first compound 100 µM), 0.593; with Metformin + Pemetrexed (first compound 316.23 µM), 0.531. The relative viability with Metformin + Pemetrexed (first compound 1000 µM) turned out to be 0.603.

For NCI-H2087, the relative viability with Metformin + Bortezomib (first compound 10 µM) was determined as 0.564; with Metformin + Bortezomib (first compound 31.62 µM) it was 0.791; in the assay with Metformin + Bortezomib (first compound 100 µM), 0.691; in the assay with Metformin + Bortezomib (first compound 316.23 µM), 0.786; with Metformin + Bortezomib (first compound 1000 µM), 0.744; with Apatinib + Phenformin (first compound 0.08 µM), 0.499. The relative viability with Apatinib + Phenformin (first compound 0.253 µM) is 0.46; in the assay with Apatinib + Phenformin (first compound 0.8 µM), 0.424; with Apatinib + Phenformin (first compound 2.53 µM), 0.339; with Apatinib + Phenformin (first compound 8 µM), 0.374; in the assay with Metformin + Navitoclax (first compound 10 µM) it was 0.951; in the assay with Metformin + Navitoclax (first compound 31.62 µM), 0.86. The relative viability with Metformin + Navitoclax (first compound 100 µM) was found to be 0.96; in the assay with Metformin + Navitoclax (first compound 316.23 µM), 0.782; with Metformin + Navitoclax (first compound 1000 µM), 0.834; in the assay with Metformin + Pemetrexed (first compound 10 µM) it was 0.622; with Metformin + Pemetrexed (first compound 31.62 µM), 0.702; in the assay with Metformin + Pemetrexed (first compound 100 µM) it was 0.615. Moreover, the relative viability is 0.536 with Metformin + Pemetrexed (first compound 316.23 µM) and 0.614 with Metformin + Pemetrexed (first compound 1000 µM).
